Patent US11744273B2, “Sweetness enhancing volatile compositions and methods of increasing perceived sweetness of a comestible” (University of Florida Research Foundation, Inc., priority 2016, dated 2023)

Assays:
Assay type in all cases: in vivo, human
[1] = tested on: sweetness; assay: Orange juice; partial least squares regression of volatiles against sweetness independent of total sugar (Table 9)
Experimental: Volatile content of orange juice was assessed and analyzed similar to as described above for tomato, strawberry, and blueberry, described above. The process for obtaining volatile samples from orange juice was slightly different than for tomatoes, strawberries and blueberries. […] Briefly, instead of collecting volatiles at room temperature from a fruit mash in headspace of a closed area, the volatiles were elicited by heating the juice to collect volatiles.

[2] = tested on: flavor intensity; assay: Tomato taste panel; association of compounds with tomato flavor intensity; details: for association with flavor intensity: univariate models
Experimental: (§1) Fully ripe fruit were harvested, and used for taste panels. A random subset of fruit was used for biochemical analysis. Three biological replicates, each consisting of 2-20 fruit (depending on fruit size), were assayed for each variety. […] Panelists were between the ages of 18 and 78 with a median age of 22. […] An average of 85 (range of 66-95) of these panelists evaluated between 4-6 varieties in a session. All panelists went through a training session to familiarize them with the scaling and procedures. Tomatoes were sliced into wedges (or in halves for grape/cherry types) and each panelist was given two pieces for evaluation. Panelists took a bite of each sample, chewed and swallowed it, and rated overall liking and liking for texture. They then rated the perceived intensities of sweetness, sourness, saltiness, umami sensation, bitterness and overall tomato flavor. They were free to take as many bites as necessary to complete the assessments. They were instructed to take a bite of an unsalted cracker and a sip of water between samples. Samples were presented to the panelists in a randomized order. Hedonic ratings used the hedonic gLMS. This scale assesses the liking for tomatoes in the context of all pleasure/displeasure experiences: 0=neutral, −100=strongest disliking of any kind experienced, and +100=strongest liking of any kind experienced. Sensory intensity ratings used the gLMS (7,8,19). This scale assesses taste and flavor sensations in the context of all sensory experience (7): 0=no sensation, 100=strongest sensation of any kind experienced. Both scales were devised to provide valid comparisons across subjects.
(§2) The 68 chemical compounds measured in this experiment were initially divided into six groups based upon biochemical properties: sugars, branched chain amino acids, lipids, carotenoids, phenolics, and acids. A small number of compounds for which biosynthetic pathways are not established were assigned to one of the six classes based upon their correlations with other classified compounds. All pairwise correlations among the set of 68 compounds were calculated. Correlation coefficients were sorted using Modulated Modularity Clustering (MMC) (9) as a visual aid for identifying compounds that are closely related in this sample. Biochemical groups were examined for compounds within the group that were highly correlated and compounds that were upstream in the relevant metabolic pathways were preferentially selected.
(§3) All analyses were performed in SAS v 9.2.
Due to the large number of chemicals potentially influencing liking, a multivariate analysis of the data was performed. The attributes were initially partitioned into six groups based upon chemical properties and biosynthetic pathways: sugars, branched chain amino acids, fatty acids, carotenoids, phenolics, and acids. […] Groups of structurally related chemicals with known metabolic links were examined for compounds within each module that were highly colinear and compounds that were upstream in relevant metabolic pathways were preferentially selected.

[3] = tested on: perceived sweetness intensity; assay: Strawberry consumer panel; revised partial least squares regression against sweetness intensity (Table 6)
Experimental: All consumer panels were approved by the University of Florida Institutional Review Board. […] Ages of panelist ranged from 18 to 71, with a median age of 24. Panelists self-classified themselves as 98 White or Caucasian, 11 Black or African-American, 1 Native American, Alaska Native or Aleutian, 41 Asian/Pacific Islander, and 15 Other. […] Fresh, fully-ripe strawberry fruit was removed from overnight 4° C. dark storage and allowed to warm to room temperature prior to sensory analysis. Each panelist was given one to two whole strawberries for evaluation, depending on cultivar availability. Panelist took a bite of each sample, chewed, and swallowed it. Ratings for overall liking and liking for texture were scaled on hedonic general labeled magnitude scale (gLMS) in the context of all pleasure/displeasure experiences. […] Scales were employed to mediate valid comparisons across subjects and sessions.
For the second analysis, partial least squares regression analysis was used to identify more correlations to sweetness independent of sugars.

[4] = tested on: perceived sweetness; assay: Tomato taste panel; initial multiple regression of volatiles against perceived sweetness (Table 3); details: for association with sweetness after accounting for fructose / association with sweetness: tomato; for association with sweetness: univariate models
Experimental: as §1, §2, §3
In conducting the multiple regression analysis on the tomato data set, the independent variables were the sugar content (glucose+fructose), and the flavor (indicated by the retronasal perception of volatiles), while the dependent variable was the perceived sweetness.

[5] = strawberry volatile concentration regressed against perceived sweetness intensity independent of fructose, partial least squares regression
[6] = strawberry volatile concentration regressed against perceived sweetness intensity independent of glucose, partial least squares regression
[7] = strawberry volatile concentration regressed against perceived sweetness intensity independent of sucrose, partial least squares regression

C=C(C)[C@@H]1CC=C(C)[C@@H](O)C1 (relative stereo) [carveol, trans]
Total Sugar t Ratio [1]: 2.542

C=CC(=O)CCCCC [1-octen-3-one]
association with flavor intensity after accounting for fructose [2]: significant after accounting for fructose | association with flavor intensity [2]: associated with flavor intensity

CCCCCC=CC=O [2-Octenal]
t Ratio (Fructose) [3, 5]: −0.171 | t Ratio (Glucose) [3, 6]: 0.292 | t Ratio (Sucrose) [3, 7]: 2.052

CCC(C)C=O (centres unmarked) [2-methylbuteraldehyde, 2-methylbutanal]
association with sweetness after accounting for fructose [4]: significant after accounting for fructose | association with sweetness [4]: showed evidence for association with sweetness | association with flavor intensity after accounting for fructose [2]: significant after accounting for fructose | association with flavor intensity [2]: associated with flavor intensity

CC(C)CCO [3-methyl-1-butanol]
association with sweetness after accounting for fructose [4]: significant after accounting for fructose | association with sweetness [4]: showed evidence for association with sweetness | association with flavor intensity after accounting for fructose [2]: significant after accounting for fructose | association with flavor intensity [2]: associated with flavor intensity

CC1C=CC2C(C1)C2(C)C (centres unmarked) [4-carene]
association with sweetness [4]: showed evidence for association with sweetness

C=C[C@]1(C)CC[C@H](C(C)(C)O)O1 [(Z)-Linalool oxide]
t Ratio (Fructose) [3, 5]: 1.868 | t Ratio (Glucose) [3, 6]: 1.561 | t Ratio (Sucrose) [3, 7]: 1.954

C/C=C(C)/C=C/C=C(C)C [E,E-alloocimene]
Total Sugar t Ratio [1]: 3.337

C=C(C)[C@H]1C=C[C@](C)(O)CC1 [E-p-mentha-2,8-dien-1-ol]
Total Sugar t Ratio [1]: 1.258

C=C(C)[C@@H]1CCC2=CCC[C@H](C)[C@@]2(C)C1 [Eremophilene]
Total Sugar t Ratio [1]: 1.738

C[Si](C)(C)CCOC(=O)CC(=O)OCC[Si](C)(C)C [Malonic acid, bis(2-trimethylsilylethyl ester]
Total Sugar t Ratio [1]: 3.148

CC1(C)[C@H]2CC=C(C=O)[C@@H]1C2 [Myrtenal]
t Ratio (Fructose) [3, 5]: 2.588 | t Ratio (Glucose) [3, 6]: 2.455 | t Ratio (Sucrose) [3, 7]: −1.323

CCCCCCCCOC(=O)C(C)CC (centres unmarked) [Octyl 2-methyl butyrate]
t Ratio (Fructose) ([3]; in vivo): 0.015 | t Ratio (Glucose) ([3]; in vivo): −0.099 | t Ratio (Sucrose) ([3]; in vivo): 0.357

C=C(C)C1CC=C(COC(C)=O)CC1 (centres unmarked) [Perillyl acetate]
t Ratio (Fructose) [3, 5]: 0.231 | t Ratio (Glucose) [3, 6]: 0.193 | t Ratio (Sucrose) [3, 7]: 0.927

C[Si](C)(O)O [Silanediol, dimethyl-]
Total Sugar t Ratio [1]: 1.781

c1ccc2scnc2c1 [benzothiazole]
association with flavor intensity [2]: associated with flavor intensity

CCCCOC(C)=O [butyl acetate]
association with sweetness [4]: showed evidence for association with sweetness | association with flavor intensity [2]: associated with flavor intensity

CC/C=C\CCO [cis-3-hexen-1-ol]
association with sweetness [4]: showed evidence for association with sweetness | association with flavor intensity after accounting for fructose [2]: significant after accounting for fructose | association with flavor intensity [2]: associated with flavor intensity

CCCCC/C=C\CCC=O [cis-4-decenal]
t ([4]; tomato volatiles, multiple regression, contribution to sweetness independent of the measures of sugar): 0.582

O=C(O)CC(O)(CC(=O)O)C(=O)O [citric acid]
association with flavor intensity after accounting for fructose [2]: significant after accounting for fructose | association with flavor intensity [2]: associated with flavor intensity

CC1=CC[C@H]2[C@H]3[C@@H]1[C@]2(C)CC[C@H]3C(C)C [copaene]
Total Sugar t Ratio [1]: 2.06

C=CCc1ccc(O)c(OC)c1 [eugenol]
association with sweetness [4]: showed evidence for association with sweetness

O=C(CO)[C@@H](O)[C@H](O)[C@H](O)CO [fructose]
association with sweetness [4]: showed evidence for association with sweetness | association with flavor intensity [2]: associated with flavor intensity

CC(C)=CCC/C(C)=C/C=O [geranial]
association with sweetness after accounting for fructose [4]: significant after accounting for fructose | association with sweetness [4]: showed evidence for association with sweetness | association with flavor intensity [2]: associated with flavor intensity

COc1ccccc1O [guaiacol]
association with sweetness [4]: showed evidence for association with sweetness

CCCCCCC=O [heptaldehyde]
association with sweetness [4]: showed evidence for association with sweetness

CSCCC=O [methional]
association with sweetness [4]: showed evidence for association with sweetness | association with flavor intensity [2]: associated with flavor intensity

O=CCc1ccccc1 [phenylacetaldehyde]
association with sweetness [4]: showed evidence for association with sweetness

CCC(C)OC(C)=O (centres unmarked) [sec-butyl acetate]
association with flavor intensity after accounting for fructose [2]: significant after accounting for fructose

CCCCC/C=C/C=C/C=O [trans,trans-2,4-decadienal]
association with flavor intensity after accounting for fructose [2]: significant after accounting for fructose | association with flavor intensity [2]: associated with flavor intensity

C=C(C)[C@@H]1CCC2=CCC[C@@H](C)[C@]2(C)C1 [valencene]
Total Sugar t Ratio [1]: 2.206

CC(=O)/C=C/C1C(C)=CCCC1(C)C (stereo not drawn) [α-ionone]
Total Sugar t Ratio [1]: 2.042

CC1=CCCC2(C)CCC3C(C)(C)CC132 (stereo not drawn) [α-panasinsen]
Total Sugar t Ratio [1]: 2.909

C=C(C)[C@@H]1CC[C@@]2(C)CCC=C(C)[C@@H]2C1 [α-selinene]
Total Sugar t Ratio [1]: 2.428

CC1=CC[C@H]2C(C)=CC[C@@H](C(C)C)[C@@H]2C1 [β-cadinene]
Total Sugar t Ratio [1]: 2.69

CCCCCCC1CCC(=O)O1 (centres unmarked) [γ-Decalactone]
t Ratio (Fructose) [3, 5]: 1.246 | t Ratio (Glucose) [3, 6]: 0.88 | t Ratio (Sucrose) [3, 7]: 1.650

C=C1CCCC2(C)CCC(=C(C)C)CC12 (centres unmarked) [γ-Selinene]
Total Sugar t Ratio [1]: 4.272

C=C(C)C1=C[C@]2(C)C(=CC1)CCC[C@H]2C [γ-vetivenene]
Total Sugar t Ratio [1]: 2.469

Methyl thiolacetate
t Ratio (Fructose) [3, 5]: 0.476 | t Ratio (Glucose) [3, 6]: 0.416 | t Ratio (Sucrose) [3, 7]: 1.037

b-caryophyllene/aromadendrene
Total Sugar t Ratio [1]: 1.565

neryl propanoate/Geranyl isobutanoate
Total Sugar t Ratio [1]: 2.298
